Data as given in patent publication US8987195B2 (priority 2012, dated 2015).
pEC50: −log10 of the molar value. Like-named read-outs stand apart in the source and are kept apart here.

Legend:
HCV genotype 1b replicon = assay: HCV replicon assay, genotype 1b replicon EC50; assay type: cell-based, Hepatitis C virus; settings: Hepatitis C virus, genotype 1b replicon, read-out: EC50 [gt-1b]
In short: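 Stable neomycin phosphotransferase-encoding replicon cell lines, kept under G418 selection beforehand, were plated with a compound dilution series without G418 and incubated 24-48 hours. Replicon RNA was then quantified, or luciferase activity read. EC50 was calculated as percent of DMSO control by four-parameter fit.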

[1] = target: HCV NS3/4A protease genotype 1b (Hepatitis C virus genotype 1b, UniProt P26663); assay: HCV NS3/4A protease time-resolved fluorescence (TRF) assay, Ki against genotype 1b; assay type: biochemical; settings: IC50 [gt-1b] (nM), NS3/4A genotype 1b, enzyme 0.2 nM
In short: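 NS3/4A enzyme was preincubated 30 min with inhibitor in 50 mM HEPES pH 7.5, 150 mM NaCl, 15% glycerol, 0.15% Triton X-100, 10 mM DTT, 0.1% PEG 8000; 25 nM europium TRF peptide substrate added, 2.5 h at room temperature. Enzyme: 0.2 nM (1b), 0.4 nM (A156T), 0.025 nM (3a). Ki from IC50 via Cheng-Prusoff.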

COc1ccc2nc(C(F)(F)F)c3c(c2c1)[C@](C)(F)C[C@]1(C[C@H]2C(=O)N[C@]4(C(=O)NS(=O)(=O)C5(C)CC5)C[C@H]4/C=C\CCCCC[C@H](NC(=O)OC(C)(C)C)C(=O)N2C1)O3 [Example 63, tert-Butyl ((1′R,2S,6S,13aS,14aR,16aS,Z)-1′-fluoro-9′-methoxy-1-methyl-14a-(((1-methylcyclopropyl)sulfonyl)carbamoyl)-5,16-dioxo-5′-(trifluoromethyl)-1′,2′,3,5,6,7,8,9,1011,13a,14,14a,15,16,16a-hexadecahydro-1H-spiro[cyclopropa[e]pyrrolo[1,2-a][1,4]diazacyclopentadecine-2,3′-pyrano[2,3-c]quinolin]-6-yl)carbamate]
pEC50 (HCV genotype 1b replicon): 9.61
IC50 [1]: 0.007 nM

COc1ccc2nc(C(F)(F)F)c3c(c2c1)[C@@H](N1CCOCC1)C[C@]1(C[C@H]2C(=O)N[C@]4(C(=O)NS(=O)(=O)C5(C)CC5)C[C@H]4/C=C\CCCCC[C@H](NC(=O)OC(C)(C)C)C(=O)N2C1)O3 [Example 65, tert-Butyl((1′S,2R,6S,13aS,14aR,16aS,Z)-9′-methoxy-14a-(((1-methylcyclopropyl)sulfonyl)carbamoyl)-1′-morpholino-5,16-dioxo-5′-(trifluoromethyl) -1′,2′,3,5,6,7,8,9,10,11,13a,14,14a,15,16,16a-hexadecahydro-1H-spiro[cyclopropa[e]pyrrolo[1,2-a][1,4]diazacyclopentadecine-2,3′-pyrano[2,3-c]quinolin]-6-yl)carbamate]
pEC50 (HCV genotype 1b replicon): 9.83
IC50 [1]: 0.011 nM

COc1ccc2nc(C(F)(F)F)c3c(c2c1)[C@H](N1CCOCC1)C[C@]1(C[C@H]2C(=O)N[C@]4(C(=O)NS(=O)(=O)C5(C)CC5)C[C@H]4/C=C\CCCCC[C@H](NC(=O)OC(C)(C)C)C(=O)N2C1)O3 [Example 66, tert-Butyl((1′R,2R,6S,13aS,14aR,16aS,Z)-9′-methoxy-14a-(((1-methylcyclopropyl)sulfonyl)carbamoyl)-1′-morpholino-5,16-dioxo-5′-(trifluoromethyl) -1′,2′,3,5,6,7,8,9,10,11,13a,14,14a,15,16,16a-hexadecahydro-1H-spiro[cyclopropa[e]pyrrolo[1,2-α][1,4]diazacyclopentadecine-2,3′-pyrano[2,3-c]quinolin]-6-yl)carbamate]
pEC50 (HCV genotype 1b replicon): 9.83
IC50 [1]: 0.011 nM

CC(C)(C)OC(=O)N[C@H]1CCCCC/C=C\C2CC2(C(=O)NS(=O)(=O)C2(C)CC2)NC(=O)C2C[C@]3(CCc4c(c(C5CC5)nc5ccc(F)cc45)O3)CN2C1=O (stereo partly drawn) [Example 68, tert-butyl [(2R,6S,12Z)-5′-cyclopropyl-9′-fluoro-14a-{[(1-methylcyclopropyl)sulfonyl]carbamoyl}-5,16-dioxo-1,1′,2′,5,6,7,8,9,10,11,13a,14,14a,15,16,16a-hexadecahydrospiro[cyclopropa[e]pyrrolo[1,2-a][1,4]diazacyclopentadecine-2,3′-pyrano[2,3-c]quinolin]-6-yl]carbamate]
pEC50 (HCV genotype 1b replicon): 9.01
IC50 [1]: 0.016 nM

CC(C)(C)OC(=O)N[C@H]1CCCCC/C=C\C2CC2(C(=O)NS(=O)(=O)C2(C)CC2)NC(=O)C2C[C@]3(CCc4c(c(C5CC5)nc5c(F)cccc45)O3)CN2C1=O (stereo partly drawn) [Example 69, tert-butyl [(2R,6S,12Z)-5′-cyclopropyl-7′-fluoro-14a-{[(1-methylcyclopropyl)sulfonyl]carbamoyl}-5,16-dioxo-1,1′,2′,5,6,7,8,9,10,11,13a,14,14a,15,16,16a-hexadecahydrospiro[cyclopropa[e]pyrrolo[1,2-a][1,4]diazacyclopentadecine-2,3′-pyrano[2,3-c]quinolin]-6-yl]carbamate]
pEC50 (HCV genotype 1b replicon; K+ salt): 9.09
IC50 ([1]; K+ salt): 0.012 nM

COc1ccc2c3c(c(C4CC4)nc2c1)O[C@]1(CC3)CC2C(=O)NC3(C(=O)NS(=O)(=O)C4(C)CC4)CC3/C=C\CCCCC[C@H](NC(=O)OC(C)(C)C)C(=O)N2C1 (stereo partly drawn) [Example 70, tert-butyl [(2R,6S,12Z)-5′-cyclopropyl-8′-methoxy-14a-{[(1-methylcyclopropyl)sulfonyl]carbamoyl}-5,16-dioxo-1,1′,2′,5,6,7,8,9,10,11,13a,14,14a,15,16,16a-hexadecahydrospiro[cyclopropa[e]pyrrolo[1,2-a][1,4]diazacyclopentadecine-2,3′-pyrano[2,3-c]quinolin]-6-yl]carbamate]
pEC50 (HCV genotype 1b replicon; K+ salt): 8.86
IC50 ([1]; K+ salt): 0.028 nM

Cc1nc2cc(F)ccc2c2c1O[C@]1(CC2)C[C@H]2C(=O)N[C@]3(C(=O)NS(=O)(=O)C4(C)CC4)C[C@H]3/C=C\CCCCC[C@H](NC(=O)OC(C)(C)C)C(=O)N2C1 [Example 71, tert-butyl [(2R,6S,12Z,13aS,14aR,16aS)-8′-fluoro-5′-methyl-14a-{[(1-methylcyclopropyl)sulfonyl]carbamoyl}-5,16-dioxo-1,1′,2′,5,6,7,8,9,10,11,13a,14,14a,15,16,16a-hexadecahydrospiro[cyclopropa[e]pyrrolo[1,2-a][1,4]diazacyclopentadecine-2,3′-pyrano[2,3-c]quinolin]-6-yl]carbamate]
pEC50 (HCV genotype 1b replicon; K+ salt): 9.20
IC50 ([1]; K+ salt): 0.023 nM

CC(C)(C)OC(=O)N[C@H]1CCCCC/C=C\[C@@H]2C[C@@]2(C(=O)NS(=O)(=O)C2(C)CC2)NC(=O)[C@@H]2C[C@@]3(CCc4c(ccc5ccccc45)O3)CN2C1=O [Example 72, tert-butyl [(3S,6′S,12′Z,13a′S,14a′R,16a′S)-14a′-{[(1-methylcyclopropyl)sulfonyl]carbamoyl}-5′,16′-dioxo-1,1′,2,5′,6′,7′,8′,9′,10′,11′,13a′,14′,14a′,15′,16′,16a′-hexadecahydrospiro[benzo[f]chromene-3,2′-cyclopropa[e]pyrrolo[1,2-a][1,4]diazacyclopentadecin]-6′-yl]carbamate]
pEC50 (HCV genotype 1b replicon): 7.62
IC50 [1]: 0.665 nM

CC(C)(C)OC(=O)N[C@H]1CCCCC/C=C\[C@@H]2C[C@@]2(C(=O)NS(=O)(=O)C2(C)CC2)NC(=O)[C@@H]2C[C@]3(CCc4c(ccc5ccccc45)O3)CN2C1=O [Example 73, tert-butyl [(3R,6′S,12′Z,13a′S,14a′R,16a′S)-14a′-{[(1-methylcyclopropyl)sulfonyl]carbamoyl}-5′,16′-dioxo-1,1′,2,5′,6′,7′,8′,9′,10′,11′,13a′,14′,14a′,15′,16′,16a′-hexadecahydrospiro[benzo[f]chromene-3,2′-cyclopropa[e]pyrrolo[1,2-a][1,4]diazacyclopentadecin]-6′-yl]carbamate]
pEC50 (HCV genotype 1b replicon): 8.77
IC50 [1]: 0.12 nM

Cc1nc2ccccc2c2c1O[C@@]1(CC2)C[C@H]2C(=O)N[C@]3(C(=O)NS(=O)(=O)C4(C)CC4)C[C@H]3/C=C\CCCCC[C@H](NC(=O)OC(C)(C)C)C(=O)N2C1 [Example 75, tert-butyl [(2S,6S,12Z,13aS,14aR,16a5)-5′-methyl-14a-{[(1-methylcyclopropyl)sulfonyl]carbamoyl}-5,16-dioxo-1,1′,2′,5,6,7,8,9,10,11,13a,14,14a,15,16,16a-hexadecahydrospiro[cyclopropa[e]pyrrolo[1,2-a][1,4]diazacyclopentadecine-2,3′-pyrano[2,3-c]quinolin]-6-yl]carbamate]
pEC50 (HCV genotype 1b replicon): 8.13
IC50 [1]: 0.022 nM

CC(C)NC(=O)N[C@H]1CCCCC/C=C\[C@@H]2C[C@@]2(C(=O)NS(=O)(=O)C2(C)CC2)NC(=O)[C@@H]2C[C@]3(CCc4c(c(-c5cccc(F)c5)nc5ccccc45)O3)CN2C1=O [Example 85, (2R,6S,12Z,13aS,14aR,16aS)-5′-(3-fluorophenyl)-N-[(1-methylcyclopropyl)sulfonyl]-5,16-dioxo-6-[(propan-2-ylcarbamoyl)amino]-1,1′,2′,6,7,8,9,10,11,13a,14,15,16,16a-tetradecahydrospiro[cyclopropa[e]pyrrolo[1,2-a][1,4]diazacyclopentadecine-2,3′-pyrano[2,3-c]quinoline]-14a(5R)-carboxamide]
pEC50 (HCV genotype 1b replicon): 8.88
IC50 [1]: 0.013 nM

Cc1ccc2nc(C)c3c(c2c1)CC[C@]1(C[C@H]2C(=O)N[C@]4(C(=O)NS(=O)(=O)C5CC5)C[C@H]4/C=C\CCCCC[C@H](NC(=O)OC(C)(C)C)C(=O)N2C1)O3 [Example 87, tert-butyl {(2R,6S,12Z,13aS,14aR,16aS)-14a-[(cyclopropylsulfonyl)carbamoyl]-5′,9′-dimethyl-5,16-dioxo-1,1′,2′,5,6,7,8,9,10,11,13a,14,14a,15,16,16a-hexadecahydrospiro[cyclopropa[e]pyrrolo[1,2-a][1,4]diazacyclopentadecine-2,3′-pyrano[2,3-c]quinolin]-6-yl}carbamate]
pEC50 (HCV genotype 1b replicon): 8.23
IC50 [1]: 0.01 nM

COC(=O)N[C@H]1CCCCC/C=C\[C@@H]2C[C@@]2(C(=O)NS(=O)(=O)C2(C)CC2)NC(=O)[C@@H]2C[C@]3(CCc4c(c(-c5cccc(F)c5)nc5ccccc45)O3)CN2C1=O [Example 88, methyl [(2R,6S,12Z,13aS,14aR,16aS)-5′-(3-fluorophenyl)-14a-{[(1-methylcyclopropyl)sulfonyl]carbamoyl}-5,16-dioxo-1,1′,2′,5,6,7,8,9,10,11,13a,14,14a,15,16,16a-hexadecahydrospiro[cyclopropa[e]pyrrolo[1,2-a][1,4]diazacyclopentadecine-2,3′-pyrano[2,3-c]quinolin]-6-yl]carbamate]
pEC50 (HCV genotype 1b replicon): 9.24
IC50 [1]: 0.202 nM
